Reference: ChEMBL document CHEMBL1201861, “Genomics of Drug Sensitity in Cancer screening data, Wellcome Trust Sanger Institute”

Assays:
Assay in all cases: cells
Type in all cases: functional, cell-based, Homo sapiens
COR-L88 = details: Homo sapiens, COR-L88;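 also: growth inhibition of COR-L88 cells, read out with a cell viability assay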
Description: SANGER: Inhibition of human COR-L88 cell growth in a cell viability assay.

D-392MG = details: Homo sapiens, D-392MG
ES8 = details: Homo sapiens, ES8;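 also: growth inhibition of human ES8 cells, read out with a cell viability assay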
Description: SANGER: Inhibition of human ES8 cell growth in a cell viability assay.

EW-18 = details: Homo sapiens, EW-18;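 also: growth inhibition of EW-18 cells, read out by a cell viability assay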
Description: SANGER: Inhibition of human EW-18 cell growth in a cell viability assay.

EOL1 = details: Homo sapiens, EOL1;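 also: growth inhibition of EoL-1 cells, read out by a cell viability assay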
Description: SANGER: Inhibition of human EoL-1-cell cell growth in a cell viability assay.

GB-1 = details: Homo sapiens, GB-1;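 also: growth of GB-1 cells judged by a viability assay, IC50 marks the concentration inhibiting growth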
Description: SANGER: Inhibition of human GB-1 cell growth in a cell viability assay.

GI-ME-N = details: Homo sapiens, GI-ME-N;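 also: growth inhibition of human GI-ME-N cells, read out with a cell viability assay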
Description: SANGER: Inhibition of human GI-ME-N cell growth in a cell viability assay.

GR-ST = details: Homo sapiens, GR-ST
Description: SANGER: Inhibition of human GR-ST cell growth in a cell viability assay.

HC-1 = details: Homo sapiens, HC-1;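 also: growth inhibition of HC-1 cells measured by a cell viability assay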
Description: SANGER: Inhibition of human HC-1 cell growth in a cell viability assay.

HH = details: Homo sapiens, HH
Description: SANGER: Inhibition of human HH cell growth in a cell viability assay.

HOP-62 = details: Homo sapiens, HOP-62;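 also: cell growth inhibition determined with a viability assay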
Description: SANGER: Inhibition of human HOP-62 cell growth in a cell viability assay.

IST-SL1 = details: Homo sapiens, IST-SL1;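 also: growth inhibition of human IST-SL1 cells, read out with a cell viability assay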
Description: SANGER: Inhibition of human IST-SL1 cell growth in a cell viability assay.

K562 = details: Homo sapiens, K562
Description: SANGER: Inhibition of human K-562 cell growth in a cell viability assay.

KALS-1 = details: Homo sapiens, KALS-1;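 also: growth inhibition of KALS-1 cells, determined with a cell viability assay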
Description: SANGER: Inhibition of human KALS-1 cell growth in a cell viability assay.

KGN = details: Homo sapiens, KGN;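 also: growth inhibition of KGN cells, read out with a cell viability assay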
Description: SANGER: Inhibition of human KGN cell growth in a cell viability assay.

KM12 = details: Homo sapiens, KM12;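 also: KM12 cell growth inhibition, read out with a cell viability assay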
Description: SANGER: Inhibition of human KM12 cell growth in a cell viability assay.

KP-N-YS = details: Homo sapiens, KP-N-YS;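 also: cell viability assay measuring inhibition of cell line growth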
Description: SANGER: Inhibition of human KP-N-YS cell growth in a cell viability assay.

KU812 cell line = details: Homo sapiens, KU812;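 also: growth inhibition of KU812 cells, read out with a cell viability assay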
Description: SANGER: Inhibition of human KU812 cell growth in a cell viability assay.

KY821 = details: Homo sapiens, KY821;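 also: growth inhibition of human KY821 cells, read out by a cell viability assay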
Description: SANGER: Inhibition of human KY821 cell growth in a cell viability assay.

LB1047-RCC = details: Homo sapiens, LB1047-RCC;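 also: inhibition of cell growth, determined with a cell viability assay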
Description: SANGER: Inhibition of human LB1047-RCC cell growth in a cell viability assay.

LB2241-RCC = details: Homo sapiens, LB2241-RCC;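 also: cell viability assay measuring how strongly the cultured human renal carcinoma line is prevented from growing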
Description: SANGER: Inhibition of human LB2241-RCC cell growth in a cell viability assay.

LB373-MEL-D = details: Homo sapiens, LB373-MEL-D;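 also: growth inhibition of the cell line, read out in a cell viability assay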
Description: SANGER: Inhibition of human LB373-MEL-D cell growth in a cell viability assay.

LB831-BLC = details: Homo sapiens, LB831-BLC;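 also: growth inhibition of LB831-BLC cells, read out with a cell viability assay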
Description: SANGER: Inhibition of human LB831-BLC cell growth in a cell viability assay.

MHH-NB-11 = details: Homo sapiens, MHH-NB-11;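 also: growth inhibition of human MHH-NB-11 cells, read out by a cell viability assay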
Description: SANGER: Inhibition of human MHH-NB-11 cell growth in a cell viability assay.

ML-2 = details: Homo sapiens, ML-2;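 also: growth inhibition of ML-2 cells, measured with a cell viability readout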
Description: SANGER: Inhibition of human ML-2 cell growth in a cell viability assay.

MMAC-SF = details: Homo sapiens, MMAC-SF;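 also: growth inhibition of human MMAC-SF cells, read out with a cell viability assay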
Description: SANGER: Inhibition of human MMAC-SF cell growth in a cell viability assay.

MPP-89 = details: Homo sapiens, MPP-89;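 also: growth inhibition of human MPP-89 cells, read out with a cell viability assay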
Description: SANGER: Inhibition of human MPP-89 cell growth in a cell viability assay.

NB17 = details: Homo sapiens, NB17;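 also: growth inhibition of NB17 cells, read out with a cell viability assay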
Description: SANGER: Inhibition of human NB17 cell growth in a cell viability assay.

NCI-H1581 = details: Homo sapiens, NCI-H1581;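 also: cell growth inhibition read out by a viability assay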
Description: SANGER: Inhibition of human NCI-H1581 cell growth in a cell viability assay.

NCI-H1838 = details: Homo sapiens, NCI-H1838;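 also: growth inhibition of NCI-H1838 cells, determined with a cell viability readout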
Description: SANGER: Inhibition of human NCI-H1838 cell growth in a cell viability assay.

NCI-H526 = details: Homo sapiens, NCI-H526;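 also: growth inhibition of the human NCI-H526 cell line, measured by a cell viability assay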
Description: SANGER: Inhibition of human NCI-H526 cell growth in a cell viability assay.

NKM-1 = details: Homo sapiens, NKM-1;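 also: growth inhibition of NKM-1 cells, read out with a cell viability assay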
Description: SANGER: Inhibition of human NKM-1 cell growth in a cell viability assay.

NMC-G1 = details: Homo sapiens, NMC-G1;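 also: growth inhibition of the NMC-G1 cell line, measured with a cell viability read-out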
Description: SANGER: Inhibition of human NMC-G1 cell growth in a cell viability assay.

ONS-76 = details: Homo sapiens, ONS-76;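 also: growth inhibition of human ONS-76 cells, read out with a cell viability assay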
Description: SANGER: Inhibition of human ONS-76 cell growth in a cell viability assay.

SK-PN-DW = details: Homo sapiens, SK-PN-DW;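 also: growth inhibition measured with a viability assay on these cells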
Description: SANGER: Inhibition of human SK-PN-DW cell growth in a cell viability assay.

SK-UT-1 = details: Homo sapiens, SK-UT-1;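 also: growth inhibition of SK-UT-1 cells, measured by a cell viability assay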
Description: SANGER: Inhibition of human SK-UT-1 cell growth in a cell viability assay.

SW 962 = details: Homo sapiens, SW 962;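 also: growth inhibition of human SW962 cells, read out by a cell viability assay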
Description: SANGER: Inhibition of human SW962 cell growth in a cell viability assay.

A101D = details: Homo sapiens, A101D;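 also: growth inhibition of the cell line, measured with a viability assay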
Description: SANGER: Inhibition of human A101D cell growth in a cell viability assay.

A3-KAW = details: Homo sapiens, A3-KAW;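 also: growth inhibition of human A3-KAW cells, read out with a cell viability assay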
Description: SANGER: Inhibition of human A3-KAW cell growth in a cell viability assay.

ALL-PO = details: Homo sapiens, ALL-PO;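 also: growth inhibition of ALL-PO cells, read out by a cell viability assay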
Description: SANGER: Inhibition of human ALL-PO cell growth in a cell viability assay.

BE-13 = details: Homo sapiens, BE-13;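 also: growth inhibition of human BE-13 cells, measured with a cell viability assay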
Description: SANGER: Inhibition of human BE-13 cell growth in a cell viability assay.

Becker = details: Homo sapiens, Becker;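 also: growth inhibition of Becker cells, read out with a cell viability assay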
Description: SANGER: Inhibition of human Becker cell growth in a cell viability assay.

TE-5 = details: Homo sapiens, TE-5;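 also: inhibition of cell growth, read out by a cell viability assay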
Description: SANGER: Inhibition of human TE-5 cell growth in a cell viability assay.

VA-ES-BJ = details: Homo sapiens, VA-ES-BJ;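 also: growth inhibition of the VA-ES-BJ cell line, read out by a cell viability assay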
Description: SANGER: Inhibition of human VA-ES-BJ cell growth in a cell viability assay.

CCRF-CEM = details: Homo sapiens, CCRF-CEM;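 also: inhibition of CCRF-CEM cell growth, measured by a cell viability assay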
Description: SANGER: Inhibition of human CCRF-CEM cell growth in a cell viability assay.

CGTH-W-1 = details: Homo sapiens, CGTH-W-1;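 also: growth inhibition of human CGTH-W-1 cells measured by cell viability assay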
Description: SANGER: Inhibition of human CGTH-W-1 cell growth in a cell viability assay.

KLE = details: Homo sapiens, KLE;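 also: growth inhibition of human KLE cells, read out with a cell viability assay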
Description: SANGER: Inhibition of human KLE cell growth in a cell viability assay.

TGBC24TKB = details: Homo sapiens, TGBC24TKB;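 also: growth inhibition of human TGBC24TKB cells, read out with a cell viability assay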
Description: SANGER: Inhibition of human TGBC24TKB cell growth in a cell viability assay.

COc1cc(N2CCN(C)CC2)ccc1Nc1ncc2c(n1)N(C)c1ccccc1C(=O)N2C
IC50 (COR-L88): > 8 µM
IC50 (D-392MG): > 8 µM
IC50 (ES8): 4.16 µM
IC50 (EW-18): > 8 µM
IC50 (EOL1): > 8 µM
IC50 (GB-1): > 8 µM
IC50 (GI-ME-N): 0.889 µM
IC50 (GR-ST): 7.68 µM
IC50 (HC-1): > 8 µM
IC50 (HH): 4.58 µM
IC50 (HOP-62): 6.6 µM
IC50 (IST-SL1): > 8 µM
IC50 (K562): > 8 µM
IC50 (KALS-1): 7.78 µM
IC50 (KGN): 2.79 µM
IC50 (KM12): > 8 µM
IC50 (KP-N-YS): > 8 µM
IC50 (KU812 cell line): 7.43 µM
IC50 (KY821): > 8 µM
IC50 (LB1047-RCC): > 8 µM
IC50 (LB2241-RCC): > 8 µM
IC50 (LB373-MEL-D): > 8 µM
IC50 (LB831-BLC): > 8 µM
IC50 (MHH-NB-11): > 8 µM
IC50 (ML-2): 7.33 µM
IC50 (MMAC-SF): > 8 µM
IC50 (MPP-89): 4.5 µM
IC50 (NB17): > 8 µM
IC50 (NCI-H1581): > 8 µM
IC50 (NCI-H1838): > 8 µM
IC50 (NCI-H526): > 8 µM
IC50 (NKM-1): > 8 µM
IC50 (NMC-G1): > 8 µM
IC50 (ONS-76): > 8 µM
IC50 (SK-PN-DW): > 8 µM
IC50 (SK-UT-1): > 8 µM
IC50 (SW 962): > 8 µM
IC50 (A101D): 7.59 µM
IC50 (A3-KAW): 4.28 µM
IC50 (ALL-PO): 5.74 µM
IC50 (BE-13): > 8 µM
IC50 (Becker): 7.46 µM
IC50 (TE-5): > 8 µM
IC50 (VA-ES-BJ): > 8 µM
IC50 (CCRF-CEM): > 8 µM
IC50 (CGTH-W-1): > 8 µM

Cc1ccc(-c2c(C(=O)CCl)n(CCCO)c3ncnc(N)c23)cc1
IC50 (COR-L88): > 4 µM
IC50 (ES8): > 4 µM
IC50 (EW-18): > 4 µM
IC50 (EOL1): > 4 µM
IC50 (GB-1): > 4 µM
IC50 (GI-ME-N): 2.52 µM
IC50 (GR-ST): > 4 µM
IC50 (HC-1): > 4 µM
IC50 (HH): > 4 µM
IC50 (HOP-62): > 4 µM
IC50 (IST-SL1): > 4 µM
IC50 (K562): > 4 µM
IC50 (KALS-1): > 4 µM
IC50 (KGN): > 4 µM
IC50 (KLE): > 4 µM
IC50 (KM12): > 4 µM
IC50 (KP-N-YS): > 4 µM
IC50 (KU812 cell line): > 4 µM
IC50 (KY821): 3.68 µM
IC50 (LB1047-RCC): > 4 µM
IC50 (LB2241-RCC): 0.699 µM
IC50 (LB373-MEL-D): > 4 µM
IC50 (LB831-BLC): > 4 µM
IC50 (MHH-NB-11): > 4 µM
IC50 (ML-2): > 4 µM
IC50 (MMAC-SF): > 4 µM
IC50 (MPP-89): > 4 µM
IC50 (NB17): 1.12 µM
IC50 (NCI-H1581): > 4 µM
IC50 (NCI-H1838): > 4 µM
IC50 (NCI-H526): > 4 µM
IC50 (NKM-1): > 4 µM
IC50 (NMC-G1): > 4 µM
IC50 (ONS-76): > 4 µM
IC50 (SK-PN-DW): > 4 µM
IC50 (SK-UT-1): > 4 µM
IC50 (SW 962): 3.66 µM
IC50 (A101D): 3.83 µM
IC50 (A3-KAW): > 4 µM
IC50 (ALL-PO): > 4 µM
IC50 (BE-13): > 4 µM
IC50 (Becker): > 4 µM
IC50 (TE-5): > 4 µM
IC50 (TGBC24TKB): > 4 µM
IC50 (VA-ES-BJ): > 4 µM
IC50 (CCRF-CEM): 2.93 µM
IC50 (CGTH-W-1): > 4 µM

C#Cc1cccc(Nc2ncnc3cc(OCCOC)c(OCCOC)cc23)c1 [ERLOTINIB]
IC50 (COR-L88): > 2 µM
IC50 (D-392MG): > 2 µM
IC50 (ES8): > 2 µM
IC50 (EW-18): > 2 µM
IC50 (EOL1): > 2 µM
IC50 (GB-1): > 2 µM
IC50 (GI-ME-N): > 2 µM
IC50 (GR-ST): > 2 µM
IC50 (HC-1): > 2 µM
IC50 (HH): > 2 µM
IC50 (HOP-62): > 2 µM
IC50 (IST-SL1): > 2 µM
IC50 (K562): > 2 µM
IC50 (KALS-1): > 2 µM
IC50 (KGN): > 2 µM
IC50 (KM12): > 2 µM
IC50 (KP-N-YS): > 2 µM
IC50 (KU812 cell line): > 2 µM
IC50 (LB1047-RCC): > 2 µM
IC50 (LB2241-RCC): > 2 µM
IC50 (LB373-MEL-D): > 2 µM
IC50 (LB831-BLC): > 2 µM
IC50 (MHH-NB-11): > 2 µM
IC50 (ML-2): > 2 µM
IC50 (MMAC-SF): > 2 µM
IC50 (MPP-89): > 2 µM
IC50 (NB17): > 2 µM
IC50 (NCI-H1581): > 2 µM
IC50 (NCI-H1838): > 2 µM
IC50 (NCI-H526): > 2 µM
IC50 (NKM-1): > 2 µM
IC50 (NMC-G1): > 2 µM
IC50 (ONS-76): > 2 µM
IC50 (SK-PN-DW): > 2 µM
IC50 (SK-UT-1): > 2 µM
IC50 (SW 962): > 2 µM
IC50 (A101D): > 2 µM
IC50 (A3-KAW): > 2 µM
IC50 (ALL-PO): > 2 µM
IC50 (BE-13): > 2 µM
IC50 (Becker): > 2 µM
IC50 (TE-5): > 2 µM
IC50 (VA-ES-BJ): > 2 µM
IC50 (CCRF-CEM): > 2 µM
IC50 (CGTH-W-1): > 2 µM
